ChEMBL document CHEMBL1158620, “Synthesis and evaluation of novel alpha-amino cyclic boronates as inhibitors of HCV NS3 protease” (Bioorg Med Chem Lett, 2010)

Columns and labels:
Hepatitis C virus [1] = assay: Antiviral activity against HCV 1b by cell based replicon assay; assay type: functional, organism-based, Hepacivirus hominis; conditions: genotype 1b
Hepatitis C virus [2] = assay: Antiviral activity against HCV 1a by cell based replicon assay; assay type: functional, organism-based, Hepacivirus hominis; conditions: subtype 1a
Hepatitis C virus [3] = assay: Inhibition of HCV 1a NS3/4A protease by FRET assay; assay type: functional, Hepatitis C virus subtype 1a; conditions: for IC50: Hepatitis C virus

For `CC(C)(C)[C@@H](NC(=O)OC1CCCC1)C(=O)N1C[C@H](Oc2nccc3ccccc23)C[C@H]1C(=O)N[C@H]1CCOB1O`, the EC50 (Hepatitis C virus [1]) was > 1000 nM, the EC50 (Hepatitis C virus [2]) was > 1000 nM and the IC50 (Hepatitis C virus [3]) was 120 nM.

With `CC(C)(C)[C@@H](NC(=O)OC1CCCC1)C(=O)N1C[C@H](Oc2nccc3ccccc23)C[C@H]1C(=O)N[C@@H]1B(O)OC[C@@H]1C1CC1` the EC50 (Hepatitis C virus [1]) was > 1000 nM, the EC50 (Hepatitis C virus [2]) was > 1000 nM and the IC50 (Hepatitis C virus [3]) was 1930 nM.

In the case of `CC(C)(C)[C@H](NC(=O)OC1CCCC1)C(=O)N1C[C@H](OC(=O)N2Cc3cccc(F)c3C2)C[C@H]1C(=O)NC1CCCCOB1O` (stereo not given in full), the EC50 (Hepatitis C virus [1]) is reported as > 1000 nM, the EC50 (Hepatitis C virus [2]) is reported as > 1000 nM and the IC50 (Hepatitis C virus [3]) is reported as 24 nM.

With `CC[C@H]1COB(O)[C@H]1NC(=O)[C@@H]1C[C@@H](OC(=O)N2Cc3cccc(F)c3C2)CN1C(=O)[C@@H](NC(=O)OC1CCCC1)C(C)(C)C` the EC50 (Hepatitis C virus [1]) was > 1000 nM, the EC50 (Hepatitis C virus [2]) was > 1000 nM and the IC50 (Hepatitis C virus [3]) was 330 nM.

With `CC(C)(C)[C@H](NC(=O)[C@@H](NC(=O)c1cnccn1)C1CCCCC1)C(=O)N1C[C@@H]2CCC[C@@H]2[C@H]1C(=O)N[C@H]1CCOB1O` the EC50 (Hepatitis C virus [1]) was > 1000 nM, the EC50 (Hepatitis C virus [2]) was > 1000 nM and the IC50 (Hepatitis C virus [3]) was 120 nM.

For `CC(C)(C)[C@H](NC(=O)OC1CCCC1)C(=O)N1C[C@H](OC(=O)N2Cc3cccc(F)c3C2)C[C@H]1C(=O)N[C@H]1CCOB1O`, the EC50 (Hepatitis C virus [1]) was > 1000 nM, the EC50 (Hepatitis C virus [2]) was > 1000 nM and the IC50 (Hepatitis C virus [3]) was 23 nM.

For `CC(C)(C)[C@H](NC(=O)OC1CCCC1)C(=O)N1C[C@H](OC(=O)N2Cc3cccc(F)c3C2)C[C@H]1C(=O)NC1CCCOB1O` (stereo not given in full), the EC50 (Hepatitis C virus [1]) was > 1000 nM, the EC50 (Hepatitis C virus [2]) was > 1000 nM and the IC50 (Hepatitis C virus [3]) was 320 nM.

In the case of `CC(C)(C)[C@@H](NC(=O)OC1CCCC1)C(=O)N1C[C@H](Oc2nccc3ccccc23)C[C@H]1C(=O)NC1CCCOB1O` (stereo not given in full), the EC50 (Hepatitis C virus [1]) is reported as > 1000 nM, the EC50 (Hepatitis C virus [2]) is reported as > 1000 nM and the IC50 (Hepatitis C virus [3]) is reported as 730 nM.

In the case of `C[C@H]1[C@H](C)OB(O)[C@H]1NC(=O)[C@@H]1C[C@@H](OC(=O)N2Cc3cccc(F)c3C2)CN1C(=O)[C@@H](NC(=O)OC1CCCC1)C(C)(C)C`, the EC50 (Hepatitis C virus [1]) is reported as > 1000 nM, the EC50 (Hepatitis C virus [2]) is reported as > 1000 nM and the IC50 (Hepatitis C virus [3]) is reported as 4470 nM.

With `C[C@H]1C[C@H](NC(=O)[C@@H]2C[C@@H](OC(=O)N3Cc4cccc(F)c4C3)CN2C(=O)[C@@H](NC(=O)OC2CCCC2)C(C)(C)C)B(O)O1` the EC50 (Hepatitis C virus [1]) was > 1000 nM, the EC50 (Hepatitis C virus [2]) was > 1000 nM and the IC50 (Hepatitis C virus [3]) was 340 nM.

In the case of `CC(C)(C)[C@H](NC(=O)OC1CCCC1)C(=O)N1C[C@H](OC(=O)N2Cc3cccc(F)c3C2)C[C@H]1C(=O)N[C@@H]1CCOB1O`, the EC50 (Hepatitis C virus [1]) is reported as > 1000 nM, the EC50 (Hepatitis C virus [2]) is reported as > 1000 nM and the IC50 (Hepatitis C virus [3]) is reported as 5310 nM.

For `CC(C)(C)[C@@H](NC(=O)OC1CCCC1)C(=O)N1C[C@H](Oc2nccc3ccccc23)C[C@H]1C(=O)NC1CCCCOB1O` (stereo not given in full), the EC50 (Hepatitis C virus [1]) was > 1000 nM, the EC50 (Hepatitis C virus [2]) was > 1000 nM and the IC50 (Hepatitis C virus [3]) was 170 nM.

In the case of `CC(C)(C)[C@@H](NC(=O)OC1CCCC1)C(=O)N1C[C@H](Oc2nccc3ccccc23)C[C@H]1C(=O)N[C@@H]1CCOB1O`, the EC50 (Hepatitis C virus [1]) is reported as > 1000 nM, the EC50 (Hepatitis C virus [2]) is reported as > 1000 nM and the IC50 (Hepatitis C virus [3]) is reported as 2750 nM.

With `CC(C)(C)[C@H](NC(=O)OC1CCCC1)C(=O)N1C[C@H](OC(=O)N2Cc3cccc(F)c3C2)C[C@H]1C(=O)N[C@H]1COB(O)C1` the EC50 (Hepatitis C virus [1]) was > 1000 nM, the EC50 (Hepatitis C virus [2]) was > 1000 nM and the IC50 (Hepatitis C virus [3]) was 8500 nM.

`CC(C)(C)[C@H](NC(=O)OC1CCCC1)C(=O)N1C[C@H](OC(=O)N2Cc3cccc(F)c3C2)C[C@H]1C(=O)N[C@@H]1B(O)OC[C@@H]1C1CC1` was tested, and the EC50 (Hepatitis C virus [1]) was > 1000 nM, the EC50 (Hepatitis C virus [2]) was > 1000 nM and the IC50 (Hepatitis C virus [3]) was 200 nM.

In the case of `CC(C)(C)NC(=O)N[C@H](C(=O)N1C[C@H]2[C@@H]([C@H]1C(=O)N[C@H]1CCOB1O)C2(C)C)C(C)(C)C`, the EC50 (Hepatitis C virus [1]) is reported as > 1000 nM, the EC50 (Hepatitis C virus [2]) is reported as > 1000 nM and the IC50 (Hepatitis C virus [3]) is reported as 340 nM.

Work on `CCC[C@H](NC(=O)[C@@H]1[C@H]2CCC[C@H]2CN1C(=O)[C@@H](NC(=O)[C@@H](NC(=O)c1cnccn1)C1CCCCC1)C(C)(C)C)C(=O)C(=O)NC1CC1` yielded a Ki (Hepatitis C virus [3]) of 44 nM and an IC50 (Hepatitis C virus [3]) of 100 nM.
